Where a name gives a salt, the structure may show the parent alone.
Target: Steroidogenic factor 1 (Homo sapiens, UniProt Q13285)
Assay: SF-1 inhibitor potency, dose response, cell-based, CHO-K1, Gal4-SF-1 LBD, luciferase luminescence (AID 600)
[1] = inactive by the depositor's call

Chain of Steroidogenic factor 1 (Q13285 whole entry, the tested form may be a part): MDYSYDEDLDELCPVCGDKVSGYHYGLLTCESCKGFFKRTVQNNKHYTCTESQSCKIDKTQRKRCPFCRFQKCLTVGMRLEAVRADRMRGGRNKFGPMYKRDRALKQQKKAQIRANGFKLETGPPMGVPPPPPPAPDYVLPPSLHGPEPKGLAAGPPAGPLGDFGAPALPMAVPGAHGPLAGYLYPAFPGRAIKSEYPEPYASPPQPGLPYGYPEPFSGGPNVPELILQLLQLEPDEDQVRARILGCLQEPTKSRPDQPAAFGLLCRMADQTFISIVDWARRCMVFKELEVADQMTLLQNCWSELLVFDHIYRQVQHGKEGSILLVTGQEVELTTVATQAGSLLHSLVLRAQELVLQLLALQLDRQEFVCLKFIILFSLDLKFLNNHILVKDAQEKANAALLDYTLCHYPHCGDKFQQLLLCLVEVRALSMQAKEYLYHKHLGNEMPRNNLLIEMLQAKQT

Row | Structure (SMILES) | IC50 [1] | IC50
1 | COc1ccc(-c2nnc(NC(=O)c3ccc(S(=O)(=O)N4COCC4(C)C)cc3)o2)cc1 [4-(4,4-dimethyloxazolidin-3-yl)sulfonyl-N-[5-(4-methoxyphenyl)-1,3,4-oxadiazol-2-yl]benzamide] | 13.5 µM | 
2 | c1ccc(N2CCN(c3nc(-c4ccccn4)nc4ccccc34)CC2)cc1 [4-(4-phenyl-1-piperazinyl)-2-(2-pyridinyl)quinazoline] |  | 5.65 µM
3 | CCc1ccc2oc(-c3ccc(N)cc3)nc2c1 [4-(5-ethyl-1,3-benzoxazol-2-yl)aniline] |  | > 3.67 µM
4 | CCOc1ccc(-c2cc(CCCC(=O)NCCc3ccc(OC)c(OC)c3OC)no2)cc1 [4-(5-p-phenetylisoxazol-3-yl)-N-[2-(2,3,4-trimethoxyphenyl)ethyl]butyramide] |  | 7.53 µM
5 | Cc1ccc2[nH]c3c(N4CCCCCC4)ncnc3c2c1 [4-(azepan-1-yl)-8-methyl-5H-pyrimido[5,4-b]indole] | 10.9 µM | 
6 | CCOC(=O)c1cnc(-n2nc(C)cc2C)nc1NC1CCCCC1 [4-(cyclohexylamino)-2-(3,5-dimethyl-1-pyrazolyl)-5-pyrimidinecarboxylic acid ethyl ester] |  | 5.67 µM
7 | CCCCN(CCCC)S(=O)(=O)c1ccc(C(=O)Nc2nnc(CSC)o2)cc1 [4-(dibutylsulfamoyl)-N-[5-(methylsulfanylmethyl)-1,3,4-oxadiazol-2-yl]benzamide] | 16.5 µM | 
8 | CSCc1nnc(NC(=O)c2ccc(S(=O)(=O)N(CC(C)C)CC(C)C)cc2)o1 [4-(diisobutylsulfamoyl)-N-[5-[(methylthio)methyl]-1,3,4-oxadiazol-2-yl]benzamide] |  | > 11 µM
9 | CC1CCCCC1NS(=O)(=O)c1ccc(S(=O)(=O)NCc2ccncc2)cc1 (stereo unspecified) [4-N-(2-methylcyclohexyl)-1-N-(pyridin-4-ylmethyl)benzene-1,4-disulfonamide] |  | > 33 µM
10 | CCN(C1CCCCC1)S(=O)(=O)c1ccc(S(=O)(=O)NCc2ccncc2)cc1 [4-N-cyclohexyl-4-N-ethyl-1-N-(pyridin-4-ylmethyl)benzene-1,4-disulfonamide] | 19.5 µM | 
11 | Cc1cccc(-n2ncc3c(N4CCOCC4)ncnc32)c1 [4-[1-(3-methylphenyl)-4-pyrazolo[3,4-d]pyrimidinyl]morpholine] |  | 4.02 µM
12 | CCOC(=O)N1CCN(C(=O)C2CCN(c3ncnc4c3sc3cccc(F)c34)CC2)CC1 [4-[1-(9-fluorobenzothiopheno[3,2-d]pyrimidin-4-yl)isonipecotoyl]piperazine-1-carboxylic acid ethyl ester] |  | 7.93 µM
13 | COC(=O)c1ccc(-n2c(O)cc(N3CCC(n4c(=O)[nH]c5ccccc54)CC3)c2O)cc1 [4-[2,5-dioxo-3-[4-(2-oxo-3H-benzimidazol-1-yl)-1-piperidinyl]-1-pyrrolidinyl]benzoic acid methyl ester] |  | > 99 µM
14 | COc1ccc(OC)c(Nc2nc(-c3ccc(O)c(O)c3)cs2)c1 [4-[2-(2,5-Dimethoxy-phenylamino)-thiazol-4-yl]-benzene-1,2-diol] |  | > 3.67 µM
15 | COC(=O)c1ccc(Oc2cc(C)nc(-n3nc(C)cc3C)n2)cc1 [4-[2-(3,5-dimethylpyrazol-1-yl)-6-methyl-pyrimidin-4-yl]oxybenzoic acid methyl ester] |  | 8.58 µM
16 | COc1ccccc1-c1nnc2sc(-c3ccc(N(C)C)cc3)nn12 [4-[3-(2-methoxyphenyl)-[1,2,4]triazolo[3,4-b][1,3,4]thiadiazol-6-yl]-N,N-dimethyl-aniline] |  | 6.26 µM
17 | O=C(Oc1ccc(-c2nc(-c3ccccn3)no2)cc1)c1ccccc1 [4-[3-(2-pyridinyl)-1,2,4-oxadiazol-5-yl]phenyl benzoate] |  | 6.83 µM
18 | COc1ccc(-c2noc(CCCC(=O)NCCc3ccccc3)n2)cc1OC [4-[3-(3,4-dimethoxyphenyl)-1,2,4-oxadiazol-5-yl]-N-(2-phenylethyl)butanamide] |  | 4.15 µM
19 | COc1ccc(-c2noc(CCCC(=O)O)n2)cc1 [4-[3-(4-methoxyphenyl)-1,2,4-oxadiazol-5-yl]butanoic acid] |  | 0.625 µM
20 | Fc1ccc2[nH]c3c(N4CCN(Cc5ccc6c(c5)OCO6)CC4)ncnc3c2c1 [4-[4-(1,3-benzodioxol-5-ylmethyl)-1-piperazinyl]-8-fluoro-5H-pyrimido[5,4-b]indole] |  | 7.8 µM
21 | COc1ccc2c(c1)[nH]c1c(N3CCN(Cc4ccc5c(c4)OCO5)CC3)ncnc12 [4-[4-(1,3-benzodioxol-5-ylmethyl)piperazin-1-yl]-7-methoxy-5H-pyrimido[5,4-b]indole] | 13.2 µM | 
22 | COc1cccc(N2CCN(c3ncnc4c3[nH]c3ccccc34)CC2C)c1 (stereo unspecified) [4-[4-(3-methoxyphenyl)-3-methyl-1-piperazinyl]-5H-pyrimido[5,4-b]indole] | 28.6 µM | 
23 | Oc1ccc(N2CCN(c3ncnc4sc5c(c34)CCC5)CC2)cc1 [4-[4-(7,8-dihydro-6H-cyclopenta[4,5]thieno[1,2-c]pyrimidin-1-yl)-1-piperazinyl]phenol] | 13.7 µM | 
24 | Clc1ccc(OCCN2CCN(c3ncnc4sccc34)CC2)cc1 [4-[4-[2-(4-chloranylphenoxy)ethyl]piperazin-1-yl]thieno[2,3-d]pyrimidine] |  | 3.44 µM
25 | Cn1nc(CC(=O)Nc2ccc(N3CCN(C(=O)OC(C)(C)C)CC3)cc2)c2ccccc2c1=O [4-[4-[[2-(3-methyl-4-oxo-1-phthalazinyl)-1-oxoethyl]amino]phenyl]-1-piperazinecarboxylic acid tert-butyl ester] |  | 2.55 µM
26 | CCOc1ccc(-c2cc(CCCC(=O)NCCCOC)no2)cc1 [4-[5-(4-ethoxyphenyl)-1,2-oxazol-3-yl]-N-(3-methoxypropyl)butanamide] |  | 4.46 µM

Row | Structure (SMILES) | IC50 [1] | IC50
27 | CCOC(=O)N1CCC(NC(=O)C2CCCN(Cc3nc(-c4cccc(Cl)c4)oc3C)C2)CC1 (stereo unspecified) [4-[[1-[[2-(3-chlorophenyl)-5-methyl-oxazol-4-yl]methyl]nipecotoyl]amino]piperidine-1-carboxylic acid ethyl ester] | 11.3 µM | 
28 | COc1cc(CN2CCN(c3cc(C)ccc3C)CC2)ccc1O [4-[[4-(2,5-dimethylphenyl)-1-piperazinyl]methyl]-2-methoxyphenol] |  | 4.07 µM
29 | COc1cc(CN=O)ccc1OCc1ccc(C(=O)O)cc1 [4-[[4-(hydroximinomethyl)-2-methoxy-phenoxy]methyl]benzoic acid] |  | 1.16 µM
30 | CCN(CC)c1ccc2cc(NC(=O)CCC(=O)O)c(=O)oc2c1 [4-[[7-(diethylamino)-2-keto-chromen-3-yl]amino]-4-keto-butyric acid] |  | 5.11 µM
31 | CN(CC1CCCO1)S(=O)(=O)c1ccc(C(=O)Nc2nc(-c3ccccn3)cs2)cc1 (stereo unspecified) [4-[methyl(2-oxolanylmethyl)sulfamoyl]-N-[4-(2-pyridinyl)-2-thiazolyl]benzamide] |  | > 3.67 µM
32 | CC(=O)c1c(C)[nH]c(C(=O)OCCCCN2C(=O)c3ccccc3C2=O)c1C [4-acetyl-3,5-dimethyl-1H-pyrrole-2-carboxylic acid 4-(1,3-dioxo-2-isoindolyl)butyl ester] |  | 2.6 µM
33 | Nc1nonc1C(=O)NCCNCc1cc(Br)ccc1OCc1ccc(F)cc1 [4-amino-N-[2-[[5-bromo-2-(4-fluorobenzyl)oxy-benzyl]amino]ethyl]furazan-3-carboxamide;hydrochloride] |  | 4.46 µM
34 | CCCCOc1ncnc2c1[nH]c1ccc(F)cc12 [4-butoxy-8-fluoranyl-5H-pyrimido[5,4-b]indole] | 11.4 µM | 
35 | CCCCOc1ccc(S(=O)(=O)Nc2cccnc2)cc1 [4-butoxy-N-(3-pyridinyl)benzenesulfonamide] | 25 µM | 
36 | COC(=O)c1nn(-c2ccc(-c3ccccc3)cc2)cc1O [4-hydroxy-1-(4-phenylphenyl)-3-pyrazolecarboxylic acid methyl ester] |  | > 33 µM
37 | Cc1ccc(-c2cnc(NC(=O)CCC(=O)N3CCCCC3)n2C)cc1 [4-keto-N-[1-methyl-5-(p-tolyl)imidazol-2-yl]-4-piperidino-butyramide] |  | > 99 µM
38 | COc1ccc(C(=O)Nn2c(SCC(=O)NCC3CCCO3)nc3ccccc3c2=O)cc1 (stereo unspecified) [4-methoxy-N-[4-oxidanylidene-2-[2-oxidanylidene-2-(oxolan-2-ylmethylamino)ethyl]sulfanyl-quinazolin-3-yl]benzamide] |  | 4.29 µM
39 | COc1ccc(C(=O)NC(=O)Nc2cc(C)ccn2)cc1 [4-methoxy-N-[(4-methyl-2-pyridyl)carbamoyl]benzamide] |  | > 1.22 µM
40 | CCOc1ccc(OCc2cccc(C(=O)N3CCOCC3)c2)cc1 [4-{3-[(4-ethoxyphenoxy)methyl]benzoyl}morpholine] |  | > 1.22 µM
41 | Cc1c2ccncc2c(C)c2c1[nH]c1ccccc12 [5,11-dimethyl-2H-pyrido[4,3-b]carbazole] |  | > 3.67 µM
42 | O=C(NC1CC1)c1ccc(-c2nc3ccccc3s2)s1 [5-(1,3-benzothiazol-2-yl)-N-cyclopropyl-2-thiophenecarboxamide] |  | 2.81 µM
43 | Cc1oc(-c2ccc3c(c2)OCCO3)cc1C(=O)O [5-(2,3-dihydro-1,4-benzodioxin-6-yl)-2-methyl-3-furancarboxylic acid] |  | 5.55 µM
44 | COc1ccc(-c2nc(-c3ccccc3)no2)c(OC)c1 [5-(2,4-dimethoxyphenyl)-3-phenyl-1,2,4-oxadiazole] |  | 3.52 µM
45 | Cc1ccc(-c2nc(-c3ccccc3)no2)c(Cl)c1 [5-(2-chloranyl-4-methyl-phenyl)-3-phenyl-1,2,4-oxadiazole] |  | 4.71 µM
46 | c1ccc(-c2noc(-c3ccc4ccccc4c3)n2)cc1 [5-(2-naphthalenyl)-3-phenyl-1,2,4-oxadiazole] |  | 8.89 µM
47 | Clc1ccc(-c2nc(-c3ccccn3)no2)cc1Cl [5-(3,4-dichlorophenyl)-3-(2-pyridinyl)-1,2,4-oxadiazole] |  | 5.62 µM
48 | COc1ccc(-c2cc(C(=O)O)c(C)o2)cc1OC [5-(3,4-dimethoxyphenyl)-2-methyl-3-furancarboxylic acid] | 10.8 µM | 
49 | Cc1ccc(-c2nc(-c3ccccn3)no2)cc1Cl [5-(3-chloranyl-4-methyl-phenyl)-3-pyridin-2-yl-1,2,4-oxadiazole] |  | > 1.22 µM
50 | Cn1cc(C=Nn2cnc3scc(-c4ccc(Cl)cc4)c3c2=O)c2ccccc21 [5-(4-chlorophenyl)-3-[(1-methyl-3-indolyl)methylideneamino]-4-thieno[2,3-d]pyrimidinone] |  | 9.07 µM
51 | Fc1ccc(-c2nnc(NC3=NCCCCC3)o2)cc1 [5-(4-fluorophenyl)-N-(3,4,5,6-tetrahydro-2H-azepin-7-yl)-1,3,4-oxadiazol-2-amine] |  | 4.83 µM

Source: BindingDB's records for doi:10.7270/Q2319T8T (The Scripps Research Institute Molecular Screening Center, 2007)
